# Laboratory results: US6087377A (priority 1999, dated 2000)
# “Also recorded” adds a separate entry of the source. Where a name gives a salt, the structure may show the parent alone. Read-outs that look alike come from different tables or passages of the source.
# Experiments:
# cells = details: droloxifene, Hasmann et al. 1994; cited from earlier work
# intestinal epithelium [1] = details: hamster, in vivo
# [2] = system: proliferating cell nuclear antigen (PCNA); details: hamster, in vivo
# cancer patients = details: cited from earlier work
# intestinal epithelium [3] = experiment: Irinotecan toxicity in the Syrian hamster: intestinal epithelium, diarrhea, weight loss
# [4] = system: proliferating cell nuclear antigen (PCNA); experiment: Western immunoblot and immunohistochemistry for PCNA in irinotecan-treated hamster intestinal epithelium; details: Western immunoblot
# HT-29 cells [5] = experiment: Growth inhibition of human colon adenocarcinoma HT-29 cells; format: cell-based
# HT-29 cells [6] = experiment: Flow cytometric cell cycle arrest and apoptosis in HT-29 cells; format: cell-based, human
# p53 [7] = experiment: Western immunoblot: p53 level in HT-29 cells; format: cell-based, human; details: HT-29, mutant (inactive) p53, Western immunoblot
# PCNA [8] = experiment: PCNA level in HT-29 cells; format: cell-based, human
# p21 [9] = experiment: p21 detection in HT-29 cells; format: cell-based, human
# [10] = system: WI-38 normal human diploid lung fibroblasts; experiment: Growth inhibition of WI-38 normal human diploid lung fibroblasts; format: cell-based; details: WI-38 fibroblasts
# [11] = system: WI-38 normal human diploid lung fibroblasts; experiment: Flow cytometry cell cycle arrest, apoptosis and recovery in WI-38 fibroblasts; format: cell-based
# p53 [12] = experiment: p53 level in WI-38 fibroblasts; format: cell-based, human; details: WI-38, IC90 of SN-38 (40 nM)
# PCNA [13] = experiment: PCNA level in WI-38 fibroblasts; format: cell-based, human; details: WI-38, IC90 of SN-38 (40 nM)
# p21 [14] = experiment: p21 level in WI-38 fibroblasts; format: cell-based, human; details: WI-38, following p53 and PCNA increase
# HT-29 cells [15] = details: HT-29 human adenocarcinoma cells; Bacon et al. 1996 abstract; cited from earlier work
# [16] = system: WI-38 normal human diploid lung fibroblasts; details: normal WI-38 human fibroblasts; cited from earlier work
# WI-38 cells = experiment: Effect of tamoxifen on replication of SN-38-treated normal WI-38 cells; format: cell-based, human; details: WI-38 (non-tumor) pretreated with tamoxifen prior to and during SN-38 exposure
# hamsters = experiment: Tamoxifen pre- and co-treatment of CPT-11-treated hamsters: weight loss and survival; format: in vivo, hamster
# hamster colon = experiment: Tamoxifen pre- and co-treatment of CPT-11-treated hamsters: colon morphology and function; format: in vivo; details: tamoxifen pre- and co-treatment with CPT-11
# [17] = system: MCF-7 breast cancer cells; details: tamoxifen, Otto et al. 1996, cited from earlier work
# cyclin D1/cdk4 = details: thought to be the mechanism; Watts et al. 1995; cited from earlier work
# beta-glucuronidase = details: cited from earlier work
# humans = details: loperamide, aggressive high-dose co-therapy, 2 hr intervals at onset of diarrhea; cited from earlier work
structure (smiles),measurement,setting,value
CC/C(=C(/c1ccc(OCCN(C)C)cc1)c1cccc(O)c1)c1ccccc1 [droloxifene],cell cycle block,cells,block cells in the G1 phase of the cell cycle in a manner similar to tamoxifen
"CCc1c2c(nc3ccc(OC(=O)N4CCC(N5CCCCC5)CC4)cc13)-c1cc3c(c(=O)n1C2)COC(=O)[C@]3(O)CC [irinotecan, irinotecan hydrochloride]",colon epithelium histology,intestinal epithelium [1],thinned and vacuolated
same,crypt cell replication (bromodeoxyuridine labelling),intestinal epithelium [1],reduction in crypt cell replication
same,diarrhea and weight loss,intestinal epithelium [1],coincident with diarrhea and weight loss
same,structural integrity of the mucosal epithelium,intestinal epithelium [1],time-dependent loss of structural integrity of the mucosal epithelium in the jejunum and ileum; villi appeared corrugated and epithelial cells lost their typical columnar morphology
same,water and electrolyte loss,intestinal epithelium [1],increased water and electrolyte loss
same,PCNA elevation (Western immunoblot),[2],time-dependent elevation in proliferating cell nuclear antigen (PCNA)
same,PCNA immunohistochemistry,[2],"increase in the number of labelled epithelial cells and labelling intensity in treated animals, with labelled cells positionally located farther towards the villus tip compared to controls"
same,major dose-limiting toxicity,cancer patients; cancer patients,severe delayed chronic grade 3-4 diarrhea
same,intestinal toxicity (diarrhea),"cancer patients; humans, CAMPTOSAR Injection",potentially life-threatening intestinal toxicity (diarrhea)
same,antitumor activity,cancer patients; variety of tumor types,"activity against a variety of tumor types, and in particular refractory colorectal tumors"
same,toxicity to the intestinal epithelium,intestinal epithelium [3]; coincident with onset of delayed diarrhea,considerable toxicity to the intestinal epithelium
same,crypts / epithelial cells,intestinal epithelium [3]; histology,apparent reduction of crypts and/or a loss of epithelial cells
same,time of detection of PCNA elevation,[4],1 days
CCc1c2c(nc3ccc(O)cc13)-c1cc3c(c(=O)n1C2)COC(=O)[C@]3(O)CC [SN-38],IC90,HT-29 cells [5],10 nM
same,inhibition at 0.01 µM,HT-29 cells [5]; SN-38 10 nM,> 90%
same,apoptosis / recovery from arrest,"HT-29 cells [6]; HT-29, after arrest",cells did not recover but instead underwent programmed cell death (apoptosis)
same,cell cycle arrest (flow cytometry),"HT-29 cells [6]; HT-29, growth-arrested cells",replication was blocked in the G2 phase of the cell cycle
same,levels of p53,p53 [7],upregulated
same,PCNA levels,PCNA [8],increased
same,p21,p21 [9],p21 is not upregulated; we have been unable to detect p21
same,IC90,[10],40 nM
same,apoptosis,"[11]; WI-38, IC90 of SN-38 (40 nM)",did not undergo apoptosis
same,cell cycle arrest (flow cytometry),"[11]; WI-38, IC90 of SN-38 (40 nM)",arrested in the S phase of the cell cycle
same,re-entry into the cell cycle,"[11]; WI-38, when drug was removed",slowly re-entered the cell cycle when drug was removed
same,levels of p53 (wild type),p53 [12],increased
same,PCNA levels,PCNA [13],increased along with PCNA
same,p21,p21 [14],followed by increases in p21
same,cell cycle arrest and apoptosis,HT-29 cells [15],arrest in G2 /M followed by apoptosis
same,cell cycle arrest,[16],arrested in S/G2
CC/C(=C(\c1ccccc1)c1ccc(OCCN(C)C)cc1)c1ccccc1 [tamoxifen],recovery of replication after SN-38,WI-38 cells,regained replication kinetics to a greater extent; also recorded: enhances the recovery of a non-tumor cell line from SN-38-induced inhibition
same,weight loss associated with CPT-11 administration,hamsters; tamoxifen pre- and co-treatment,reduced; also recorded: reduces weight loss attributable to diarrhea
same,survival,hamsters; tamoxifen pre- and co-treatment with CPT-11,survival increased
same,morphology and function of the colon,hamster colon,improvement in morphology and function of the hamster colon; also recorded: reduces the colonic pathology and physiological effects
same,cell cycle block,[17],blocks cell cycle progression in G0 /G1
same,cell cycle block,[17]; listed as Tamoxifen,block in the G0 /G1 phase of the cell cycle
same,repression of G1-specific protein kinase activity,cyclin D1/cdk4,repression of G1 -specific protein kinase activity
"O=C(O)[C@H]1O[C@@H](Oc2cc3oc(-c4ccccc4)cc(=O)c3c(O)c2O)[C@H](O)[C@@H](O)[C@@H]1O [Baicalin, baicalin]",inhibition of beta-glucuronidase (presumed anti-diarrheal mechanism),beta-glucuronidase,has similar activity
CN(C)C(=O)C(CCN1CCC(O)(c2ccc(Cl)cc2)CC1)(c1ccccc1)c1ccccc1 [loperamide],control of diarrhea,humans,successful in most cases
